From ChEMBL document CHEMBL4265932, “Advances in diarylpyrimidines and related analogues as HIV-1 nonnucleoside reverse transcriptase inhibitors” (Eur J Med Chem, 2018) come the findings set out here.

The structures appear in SMILES notation.

Data set [1] deals with T1, Human immunodeficiency virus type 1 reverse transcriptase (Human immunodeficiency virus 1, UniProt Q72547). The data set is described as follows: Inhibition of wild-type HIV1 3B reverse transcriptase.
For data set [2], the target named is T2, Human immunodeficiency virus type 1 reverse transcriptase (Human immunodeficiency virus 1, UniProt Q72547, K103N/Y181C). The data set is described as follows: Inhibition of HIV1 RES056 reverse transcriptase K103N/Y181C double mutant.
Data set [3] relates to Human immunodeficiency virus 1. Description: Antiviral activity against wild-type HIV1 infected in human TZM-bl cells pretreated with cells for 30 mins followed by viral infection and measured after 48 hrs by luciferase reporter gene assay. It is filed as functional, organism-based. The conditions noted are these: Human immunodeficiency virus 1, TZM-bl. Background: A reporter such as luciferase makes a cellular process visible.

Data set [4] is described as follows: Selectivity index, ratio of CC50 for human TZM-bl cells to EC50 for wild-type HIV1 infected in human TZM-bl cells. It is filed as toxicity, cell-based. Conditions: read-out: Ratio CC50/EC50.
Data set [5] concerns the target Human immunodeficiency virus type 1 reverse transcriptase (Human immunodeficiency virus 1, UniProt Q72547, Y181C). Description: Inhibition of recombinant HIV1 reverse transcriptase Y181C mutant.
For data set [6], the target named is Human immunodeficiency virus type 1 reverse transcriptase (Human immunodeficiency virus 1, UniProt Q72547, K103N/L100I). The data set is described as follows: Inhibition of recombinant HIV1 reverse transcriptase L100I/K103N double mutant.
Data set [7] deals with Human immunodeficiency virus type 1 reverse transcriptase (Human immunodeficiency virus 1, UniProt Q72547, Y188L). The data set is described as follows: Inhibition of recombinant HIV1 reverse transcriptase Y188L mutant.
Data set [8] deals with Human immunodeficiency virus type 1 reverse transcriptase (Human immunodeficiency virus 1, UniProt Q72547, K103N). The data set is described as follows: Inhibition of recombinant HIV1 reverse transcriptase K103N mutant.
For data set [9], the target named is Human immunodeficiency virus type 1 reverse transcriptase (Human immunodeficiency virus 1, UniProt Q72547, L100I). Description: Inhibition of recombinant HIV1 reverse transcriptase L100I mutant.
The target in data set [10] is T2, Human immunodeficiency virus type 1 reverse transcriptase. The data set is described as follows: Inhibition of recombinant HIV1 reverse transcriptase K103N/Y181C double mutant.
The target in data set [11] is T1, Human immunodeficiency virus type 1 reverse transcriptase. Description: Inhibition of HIV1 reverse transcriptase.
Data set [12] in a line: Selectivity index, ratio of CC50 for human MT4 cells to EC50 for wild-type HIV1 3B reverse transcriptase infected in human MT4 cells. Format: toxicity, cell-based. The conditions noted are these: read-out: Ratio CC50/EC50.

Turning to `N#Cc1ccc(Nc2nccc(/C(=N\N)c3ccccc3Br)n2)cc1`, the values for the EC50 in data set [1] and in [2] were 0.0017 µM and more than 9.2 µM, respectively.

`Cc1cc(/C=C/C#N)cc(F)c1Nc1ccc(F)c(Nc2ccc(C#N)cc2)n1`: the EC50 (in general, the concentration giving half of the maximal effect) in data set [3] came to 0.001 µM. Also, the selectivity ratio in [4] was more than 100000.

In the case of `Cc1cc(C)c(Nc2ccnc(Nc3ccc(C#N)cc3)n2)c(C)c1` [DAPIVIRINE], the 50% inhibitory concentration (IC50) (in general, the concentration needed to halve the response being measured) in [1] is 0.001 µM; in data set [5], 0.00794 µM; in data set [6], more than 10 µM; in [7], 0.0398 µM; in [8], 0.00398 µM; in data set [9], 0.0158 µM. In [10], the IC50 was 0.0398 µM.

For the compound `Cc1cc(C)c(Nc2ccnc(Nc3ccc(Cl)cc3)n2)c(C)c1`, the IC50 in data set [1] is 0.00316 µM; in [5], 0.0794 µM; in [6], more than 10 µM; in data set [7], 2.51 µM; in data set [8], 0.0251 µM; in data set [9] it was 0.2 µM.

For the compound `Cc1cc(/C=C/C#N)cc(C)c1Nc1ncc(F)c(Nc2ccc(C#N)cc2)n1`, the EC50 in data set [3] stood at 0.0009 µM. Besides, the selectivity ratio in data set [4] was more than 42000.

In turn, `CC(=O)c1ccc(C)cc1NC(C(N)=O)c1c(Cl)cccc1Cl` (stereo not drawn) [LOVIRIDE] came in with an EC50 in [11] of 0.013 µM.

For `Cc1cc(/C=C/C#N)cc(C)c1Nc1ccc(F)c(Nc2ccc(C#N)cc2)n1`, the EC50 in data set [3] came out at 0.0016 µM. Further, the selectivity ratio in data set [4] turned out to be 62500.

Regarding `N#Cc1ccc(Nc2nccc(Oc3ccc4cc(C#N)ccc4c3Br)n2)cc1`, the selectivity ratio in data set [12] was 181000.

As to `N#Cc1ccc(Nc2nccc(/C(=N\N)c3ccc4ccccc4c3)n2)cc1`, the concentration for a half-maximal effect (EC50) was found to be 0.0084 µM in data set [1] and 8.4 µM in data set [2].

`Cc1cc(C#N)cc(C)c1Nc1ncc(F)c(Nc2ccc(C#N)cc2)n1`: the EC50 in [3] is 0.0028 µM. Moreover, the selectivity ratio in [4] is 36000.

`N#Cc1ccc(Nc2nccc(Oc3ccc4ccccc4c3Br)n2)cc1`: the selectivity ratio in [12] stood at 65600.

As to `Cc1cc(C)c(Nc2ccnc(Nc3ccc(C(N)=O)cc3)n2)c(C)c1`, the IC50 in data set [1] is 0.0631 µM; in data set [5] it was more than 10 µM; in data set [7], more than 10 µM; in data set [8], more than 10 µM; in [9] it was more than 10 µM.
